Results: article PMC7867324, “Design, Synthesis and Biological Evaluation of New Pyrimidine Derivatives as Anticancer Agents” (Molecules, 2021)
Counter-ions that a name gives are not always drawn. Like-named read-outs stand apart in the source and are kept apart here.

How the values were obtained:
colon carcinoma HT-29 = experiment: In vitro proliferation assay (sulforhodamine B), HT-29; assay type: cell-based, human
Method: (§1) The possible antitumoral activity of these new compounds was analyzed by the effects exerted on the proliferation of five human tumor cell lines of different histotype. Therefore, the modifications on cell viability and replication determined by the treatment with each single compound were evaluated. The following human tumor cell lines triple-negative breast cancer MDA-MB231, colon carcinoma HT-29, glioblastoma multiforme U-87 MG, tongue squamous cell carcinoma CAL27 and pharynx squamous cell carcinoma FaDu were treated for 24 and 48 h with 10, 20, 30, 40, 50 and 60 μM of each single compound.
(§2) Anti-proliferative activities are reported in Table 2 (compounds 1b–g, 3) and Table 3 (compounds 2a–f) in comparison with reference compound 1a.
(§3) The following human tumor cell lines were utilized in the present study: glioblastoma multiforme U-87 MG, triple-negative breast cancer MDA-MB231, colon carcinoma HT-29, tongue squamous cell carcinoma CAL27 and pharynx squamous cell carcinoma FaDu, all of which obtained from the American Type Culture Collection (Manassas, VA, USA). In addition, human dermal fibroblast primary cultures (HF) used as control of non-transformed cells, had been previously established in our laboratory.
(§4) The cells were grown at 37 °C and 5% CO2 in Dulbecco’s modified Eagle’s medium or RPMI 1640 medium supplemented with 10% fetal bovine serum, 2 mM glutamine and 50 U/mL penicillin-streptomycin (Sigma-Aldrich).
(§5) All compounds were solubilized in dimethylsulfoxide (DMSO) (Sigma) for a 10 mM stock solution and utilized to final concentrations from 100 nM to 60 μM for 24 and 48 h. Control cells were treated with equivalent amounts of DMSO in every experiment.
(§6) To determine cytotoxicity, a sulforhodamine B colorimetric assay was performed. Cells (1.5 × 10^4) were plated in a 96-well plate, grown for 24 h and then treated with different concentrations of each compound for 24 and 48 h at 37 °C. Cells were then fixed with 50% trichloroacetic acid for 1 h at 4 °C and stained for 30 min at room temperature with 0.4% sulforhodamine B in 1% acetic acid. Excess dye was removed by washing four times with 1% acetic acid. Protein-bound dye was dissolved in 10 mM Tris (pH 10), and optical density was determined at 510 nm using a microplate reader. Each experiment was performed three times and the media was calculated.

[1] = tested on: triple-negative breast cancer MDA-MB231; experiment: In vitro proliferation assay (sulforhodamine B), MDA-MB231; assay type: cell-based, human
Method: as §1, §2, §3, §4, §5, §6

[2] = tested on: pharynx squamous cell carcinoma FaDu; experiment: In vitro proliferation assay (sulforhodamine B), FaDu; assay type: cell-based, human
Method: as §1, §2, §3, §4, §5, §6

[3] = tested on: glioblastoma multiforme U-87 MG; experiment: In vitro proliferation assay (sulforhodamine B), U-87 MG; assay type: cell-based, human
Method: as §1, §2, §3, §4, §5, §6

[4] = tested on: tongue squamous cell carcinoma CAL27; experiment: In vitro proliferation assay (sulforhodamine B), CAL27; assay type: cell-based, human
Method: as §1, §2, §3, §4, §5, §6

[5] = Cytotoxicity on normal cells (sulforhodamine B), HF; assay type: cell-based, human; conditions: human, human dermal fibroblast primary cultures (HF), 48 h
Method: as §3, §4, §5, §6

[6] = tested on: five human tumor cell lines (HT-29, U-87 MG, MDA-MB231, CAL27, FaDu); experiment: In vitro proliferation assay, summary over all tested tumor cell lines; assay type: cell-based; conditions: for EC50: Homo sapiens, all tested tumor cell lines, read-out: EC50s over the tested cell lines
Method: as §1, §2, §3, §4, §5, §6

[7] = tested on: human dermal fibroblasts (HF); experiment: Cytotoxicity on normal cells (sulforhodamine B), HF; assay type: cell-based
Method: as §3, §4, §5, §6

[8] = tested on: human cancer cells of different histotypes; set-up: method as in PMID 30900116; conditions: cited from earlier work
[9] = Homo sapiens, HT-29, 48 h, 48 h
[10] = Homo sapiens, MDA-MB-231, 48 h, 48 h
[11] = Homo sapiens, CAL-27, 48 h, 48 h
[12] = Homo sapiens, HT-29, 24 h, 24 h
[13] = Homo sapiens, CAL-27, 24 h, 24 h

| Compound | EC50 (colon carcinoma HT-29; [9]) [µM] | EC50 [1, 10] [µM] | EC50 ([2]; Homo sapiens, FaDu, 48 h) [µM] | EC50 ([3]; Homo sapiens, U-87 MG, 48 h) [µM] | EC50 [4, 11] [µM] | CC50 at 48 h [5] [µM] | EC50 ([6]; time not given) [µM] | EC50 (colon carcinoma HT-29; [12]) [µM] | also measured |
| --- | --- | --- | --- | --- | --- | --- | --- | --- | --- |
| CCCN(CCC)c1cc(N)nc(N(Cc2ccc(F)cc2)c2ccc(Cl)cc2F)n1 [Compound 2f, N^2-(4-Chloro-2-fluorophenyl)-N^2-(4-fluorobenzyl)-N^4,N^4-dipropylpyrimidine-2,4,6-triamine] | 30 | 58.3 | > 60 | > 60 | 45 |  |  |  | EC50 ([4]; 48 h): 45.4 µM |
| CCCN(CCC)c1cc(N)nc(Nc2cccc(Cl)c2)n1 [Compound 1e-HCl, N^2-(3-chlorophenyl)-N^4,N^4-dipropylpyrimidine-2,4,6-triamine hydrochloride] | 29.3 | 50.2 | 39.8 | 36.6 | 30.3 | > 60 |  |  |  |
| CCCN(CCC)c1cc(N)nc(N(Cc2ccc(F)cc2)c2cccc(Cl)c2)n1 [Compound 2e, N^2-(3-Chlorophenyl)-N^2-(4-fluorobenzyl)-N^4,N^4-dipropylpyrimidine-2,4,6-triamine] | > 60 | > 60 | > 60 | > 60 | 59.3 |  | > 60 |  |  |
| COc1cccc(Nc2cc(N)nc(Nc3cccc(OC)c3)n2)c1 [Compound 3, N^2,N^4-bis(3-Methoxyphenyl)pyrimidine-2,4,6-triamine] | 11.7 | 10.2 |  | 22.9 | 10.4 | 65 |  | 28.2 | EC50 ([6]; 48 h of treatment): ≤ 20 µM; cytotoxic activity on normal somatic cells, not cytotoxic up to [7]: > 60 µM; EC50 ([2]; Homo sapiens, FaDu, 24 h): 42.1 µM; EC50 [4, 13]: 20.3 µM |
| CCN(CC)CCCNc1cc(N)nc(Nc2cccc(Cl)c2)n1 [Compound 1a, N^2-(3-Chlorophenyl)-N^4-(3-(diethylamino)propyl)pyrimidine-2,4,6-triamine] | 51.8 | 34.8 | > 60 | > 60 | 54.2 | > 60 |  |  | effect on cell cycle ([8]; 20 μM): upregulation of p21 and p27 and blockage of the cell cycle at G0/G1; induction of apoptosis ([8]; 30–50 μM): induced apoptosis |
| CCN(CC)CCCNc1cc(N)nc(N(Cc2ccc(F)cc2)c2cccc(F)c2)n1 [Compound 2b, N^4-(3-(diethylamino)propyl)-N^2-(4-fluorobenzyl)-N^2-(3-fluorophenyl)pyrimidine-2,4,6-triamine] | 10.4 | 7.3 | 23.8 | 17.7 | 5.1 | 54.7 |  | 20.2 |  |
| CCN(CC)CCCNc1cc(N)nc(Nc2cccc(F)c2)n1 [Compound 1b, N^4-(3-(Diethylamino)propyl)-N^2-(3-fluorophenyl)pyrimidine-2,4,6-triamine] | 29.8 | 35.7 | 43.4 | 47.3 | 20 | 88 |  |  | EC50 ([4]; 48 h): 20.3 µM |
| CCCN(CCC)c1cc(N)nc(Nc2cccc(Cl)c2)n1 [Compound 1e, N^2-(3-chlorophenyl)-N^4,N^4-dipropylpyrimidine-2,4,6-triamine] |  |  |  |  |  |  |  |  | EC50 ([6]; 48 h of treatment): 25 to 45 µM; EC50 (colon carcinoma HT-29; 48 h): 28.5 µM; EC50 ([1]; 48 h): 34.2 µM; CC50 ([7]; 48 h): 68 µM; cytotoxic activity on normal somatic cells, not cytotoxic up to [7]: > 60 µM; EC50 ([2]; 48 h): 29.7 µM; EC50 ([3]; 48 h): 45.3 µM; EC50 ([4]; 48 h): 24.7 µM |
| CCN(CC)CCCNc1cc(N)nc(N(Cc2ccc(F)cc2)c2cccc([N+](=O)[O-])c2)n1 [Compound 2d, N^4-(3-(Diethylamino)propyl)-N^2-(4-fluorobenzyl)-N^2-(3-nitrophenyl)pyrimidine-2,4,6-triamine] | 12.7 | 17.3 | 20.5 | 30.1 | 10.3 | 55.2 |  | 25.2 |  |
| CCN(CC)CCCNc1cc(N)nc(Nc2cccc(OC)c2)n1 [Compound 1c, N^4-(3-(Diethylamino)propyl)-N^2-(3-methoxyphenyl)pyrimidine-2,4,6-triamine] | 57 | 70.5 | 71 | > 60 | 57 |  | > 60 |  |  |
| CCN(CC)CCCNc1cc(N)nc(N(Cc2ccc(F)cc2)c2cccc(Cl)c2)n1 [Compound 2a, N^2-(3-chlorophenyl)-N^4-(3-(diethylamino)propyl)-N^2-(4-fluorobenzyl)pyrimidine-2,4,6-triamine] | 5.4 | 7.9 | 8.5 | 7.5 | 4.3 | 50.2 | 4 to 8 | 10.2 | negative regulation of growth (cell viability, Figure 3) ([6]; 1, 10, 20, 50 μM, 24 h and 48 h, each tumor cell line): significant at various concentrations and times; EC50 ([6]; 24 h of treatment): 10 to 26 µM; EC50 ([6]; 48 h of treatment): 5 to 8 µM; fold more active than 1a ([6]; vs hit 1a (RDS 3442), all tested cell lines, 48 h of treatment): 4–13 fold; EC50 ([1]; Homo sapiens, MDA-MB-231, 24 h, 24 h): 18 µM; negative regulation of growth (cell viability, Figure 3) ([7]; 1, 10, 20, 50 μM, 24 h and 48 h, normal fibroblasts): only weakly significant and exclusively at high concentrations at 48 h; EC50 ([2]; Homo sapiens, FaDu, 24 h): 26.2 µM; EC50 ([3]; Homo sapiens, U-87 MG, 24 h): 22 µM; EC50 [4, 13]: 9.7 µM |
| CN1CCN(c2cc(N)nc(Nc3cccc(Cl)c3)n2)CC1 [Compound 1g, N^2-(3-Chlorophenyl)-6-(4-methylpiperazin-1-yl)pyrimidine-2,4-diamine] | 60 | 55 | 87 | > 60 | 60 |  |  |  |  |
| CCN(CC)CCCNc1cc(N)nc(Nc2cccc([N+](=O)[O-])c2)n1 [Compound 1d, N^4-(3-(Diethylamino)propyl)-N^2-(3-nitrophenyl)pyrimidine-2,4,6-triamine] | 40.4 | 49.2 | 46.8 | 54.9 | 35.3 | 97 |  |  |  |
| CCCN(CCC)c1cc(N)nc(Nc2ccc(Cl)cc2F)n1 [Compound 1f, N^2-(4-Chloro-2-fluorophenyl)-N^4,N^4-dipropylpyrimidine-2,4,6-triamine] | 50 | 58 | 67 | > 60 | 55 | 98 | 50 to 75 |  |  |
| CCN(CC)CCCNc1cc(N)nc(N(Cc2ccc(F)cc2)c2cccc(OC)c2)n1 [Compound 2c, N^4-(3-(diethylamino)propyl)-N^2-(4-fluorobenzyl)-N^2-(3-methoxyphenyl)-pyrimidine-2,4,6-triamine] | 18.3 | 27.2 | 18 | 19.8 | 14.9 | 50.3 | 15 to 35 | 34.7 | EC50 ([2]; 48 h): 18.2 µM; folds more active than 3 ([2]; FaDu, 48 h of treatment, 2c vs 3): about 2.5 folds |
